Test results as given in patent publication US10391095B2, “DNA-PK inhibitors” (Vertex Pharmaceuticals Incorporated, priority 2012, dated 2019).

The compounds below were run against DNA-PK (Homo sapiens, UniProt P78527) (assay: DNA-PK inhibition assay (radiometric, 33P-ATP)). Conditions: 100 μM ATP, competitive tight-binding fit.
Type: biochemical
In short: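 33P transfer from 100 µM ATP to a DNA-PK peptide (0.8 mg/mL) is measured after 45 min, using about 6 nM enzyme activated by 10 µg/mL sheared dsDNA (HEPES pH 7.5, MgCl2, DTT). Filter-bound counts fitted to a competitive tight-binding inhibition model give Ki.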
CNC(=O)c1ccnc2c([C@H](C)CNc3cc(-c4cnc(N5CCN(CC(F)F)CC5)nc4)ncn3)cccc12 [Compound 757] was tested, and the Ki was under 30 nM. CNC(=O)c1ccnc2c([C@H](C)CNc3cc(-c4ccc5c(c4)CNC5=O)ncn3)cccc12 [Compound 758] showed a Ki of under 30 nM. CNC(=O)c1ccnc2c([C@H](C)CNc3cc(-c4ccc(C(N)=O)cc4)ncn3)cccc12 [Compound 759] gave a Ki of under 30 nM. Compound CNC(=O)c1c(OC)cnc2c([C@H](C)CNc3cc(-c4ccc(C)nc4)ncn3)cccc12 [Compound 762] has a Ki of under 30 nM. CNC(=O)c1c(-n2ccnc2)cnc2c([C@H](C)CNc3cc(-c4ccc(C)nc4)ncn3)cccc12 [Compound 763] was tested, and the Ki was under 30 nM. CNC(=O)c1c(NC)cnc2c([C@H](C)CNc3cc(-c4ccc(C)nc4)ncn3)cccc12 [Compound 764] gave a Ki of under 30 nM. CNC(=O)c1c(N(C)C)cnc2c([C@H](C)CNc3cc(-c4ccc(C)nc4)ncn3)cccc12 [Compound 765] was tested, and the Ki was under 30 nM. For CNC(=O)c1c(C#N)cnc2c([C@H](C)CNc3cc(-c4ccc(C)nc4)ncn3)cccc12 [Compound 766], the Ki was under 30 nM. CNC(=O)c1c(N2CCOCC2)cnc2c([C@H](C)CNc3cc(-c4ccc(C)nc4)ncn3)cccc12 [Compound 767] showed a Ki of under 30 nM. CNC(=O)c1ccnc2c([C@H](C)CNc3cc(-c4cnc(O)nc4)ncn3)cccc12 [Compound 768] gave a Ki of under 30 nM. CNC(=O)c1ccnc2c([C@H](C)CNc3cc(-c4ccc(C(=O)N5CCN(C)CC5)cc4)ncn3)cccc12 [Compound 770] was tested, and the Ki was under 30 nM. Work on CNC(=O)c1ccnc2c([C@H](C)CNc3cc(-c4ccnc(C)c4)ncn3)cccc12 [Compound 771] yielded a Ki of under 30 nM. For CNC(=O)c1c(F)cnc2c([C@H](C)CNc3cc(-c4cncc(C)c4)ncn3)cccc12 [Compound 772], the Ki was under 30 nM. With CNC(=O)c1ccnc2c([C@H](C)CNc3cc(-c4ccc(C(=O)OC)s4)ncn3)cccc12 [Compound 774] the Ki was under 30 nM. CNC(=O)c1ccnc2c([C@H](C)CNc3cc(-c4ccc(C(=O)O)s4)ncn3)cccc12 [Compound 775] was tested, and the Ki was under 30 nM. For CNC(=O)c1ccc(-c2cc(NC[C@@H](C)c3cccc4c(C(=O)NC)ccnc34)ncn2)s1 [Compound 776], the Ki was under 30 nM. In the case of CNC(=O)c1ccnc2c([C@H](C)CNc3cc(-c4ccc(C(=O)N(C)C)s4)ncn3)cccc12 [Compound 777], the Ki is reported as under 30 nM. CNC(=O)c1ccnc2c([C@H](C)CNc3cc(-c4cnc(C)s4)ncn3)cccc12 [Compound 778] was tested, and the Ki was under 30 nM. CNC(=O)c1ccnc2c([C@H](C)CNc3cc(-c4cnc(OC)s4)ncn3)cccc12 [Compound 779] showed a Ki of under 30 nM. With CNC(=O)c1ccnc2c([C@H](C)CNc3cc(-c4ccc(N5CCN(CC(F)(F)F)CC5)nc4)ncn3)cccc12 [Compound 780] the Ki was under 30 nM. For CNC(=O)c1c(F)cnc2c([C@H](C)CNc3cc(-c4csc(-n5cccn5)n4)ncn3)cccc12 [Compound 782], the Ki was under 30 nM. Compound CNC(=O)c1c(F)cnc2c([C@H](C)CNc3cc(-c4cnn(C)c4)ncn3)cccc12 [Compound 783] has a Ki of under 30 nM. Compound CNC(=O)c1c(F)cnc2c([C@H](C)CNc3cc(-c4cn[nH]c4)ncn3)cccc12 [Compound 785] has a Ki of under 30 nM. Work on CNC(=O)c1c(F)cnc2c([C@H](C)CNc3cc(-c4csc(OC)n4)ncn3)cccc12 [Compound 787] yielded a Ki of under 30 nM. For CCc1ccc(-c2cc(NC[C@@H](C)c3cccc4c(C(=O)NC)ccnc34)ncn2)cn1 [Compound 789], the Ki was under 30 nM. With CNC(=O)c1ccnc2c([C@H](C)CNc3cc(-c4cnc(C5CC5)nc4)ncn3)cccc12 [Compound 790] the Ki was under 30 nM. Compound CNC(=O)c1ccnc2c([C@H](C)CNc3cc(-c4cnc(C(C)(C)C)nc4)ncn3)cccc12 [Compound 791] has a Ki of under 30 nM. Work on CNC(=O)c1ccnc2c([C@H](C)CNc3cc(-c4cncc(C)c4)ncn3)cccc12 [Compound 792] yielded a Ki of under 30 nM. Compound CNC(=O)c1ccnc2c([C@H](C)CNc3cc(-c4cnc5c(c4)CCCO5)ncn3)cccc12 [Compound 793] has a Ki of under 30 nM. In the case of CCOC(=O)c1cn2c(n1)CN(c1cc(NC[C@@H](C)c3cccc4c(C(=O)NC)ccnc34)ncn1)CC2 [Compound 794], the Ki is reported as under 30 nM. CCOC(=O)c1ccc(-c2cc(NC[C@@H](C)c3cccc4c(C(=O)NC)ccnc34)ncn2)o1 [Compound 795] gave a Ki of under 30 nM. CNC(=O)c1ccnc2c([C@H](C)CNc3cc(N4CNC(=O)C4)ncn3)cccc12 [Compound 797] showed a Ki of under 30 nM. CNC(=O)c1ccnc2c([C@H](C)CNc3cc(-c4ccc(O)nc4)ncn3)cccc12 [Compound 799] showed a Ki of under 30 nM. Work on CNC(=O)c1ccnc2c([C@H](C)CNc3cc(-c4cnc(SC)nc4)ncn3)cccc12 [Compound 800] yielded a Ki of under 30 nM. Compound CNC(=O)c1ccnc2c([C@H](C)CNc3cc(-c4ccc5c(c4)CNCC5)ncn3)cccc12 [Compound 801] has a Ki of under 30 nM. CNC(=O)c1ccnc2c([C@H](C)CNc3cc(-c4ccc5c(c4)CCNC5)ncn3)cccc12 [Compound 802] showed a Ki of under 30 nM. CNC(=O)c1ccnc2c([C@H](C)CNc3cc(-c4ccc5c(c4)CCN(C(C)=O)C5)ncn3)cccc12 [Compound 803] gave a Ki of under 30 nM. CNC(=O)c1ccnc2c([C@H](C)CNc3cc(-c4ccc5c(c4)CN(C(C)=O)CC5)ncn3)cccc12 [Compound 804] gave a Ki of under 30 nM. CNC(=O)c1ccnc2c([C@H](C)CNc3cc(-c4ccc(C)cc4F)ncn3)cccc12 [Compound 805] showed a Ki of under 30 nM. Compound CNC(=O)c1ccc(-c2cc(NC[C@@H](C)c3cccc4c(C(=O)NC)ccnc34)ncn2)cc1F [Compound 807] has a Ki of under 30 nM. For CNC(=O)c1ccnc2c([C@H](C)CNc3cc(-c4ccc(C5(O)COC5)cc4)ncn3)cccc12 [Compound 809], the Ki was under 30 nM. CNC(=O)c1ccnc2c([C@H](C)CNc3cc(-c4cnc(N(C)C)nc4)ncn3)cccc12 [Compound 810] was tested, and the Ki was under 30 nM. Work on CNC(=O)c1ccnc2c([C@H](C)CNc3cc(-c4ccc(C(C)OC)cc4)ncn3)cccc12 (stereo partly shown) [Compound 811] yielded a Ki of under 30 nM. CNC(=O)c1ccnc2c([C@H](C)CNc3cc(-c4ccnc(C(F)(F)F)c4)ncn3)cccc12 [Compound 812] showed a Ki of under 30 nM. With Cc1ncc(-c2cc(NC[C@@H](C)c3cccc4c(C(F)F)c(F)cnc34)ncn2)cn1 [Compound 813] the Ki was under 30 nM. Compound C[C@H](CNc1cc(-c2cnc3c(cnn3CCO)c2)ncn1)c1cccc2c(C(F)F)c(F)cnc12 [Compound 814] has a Ki of under 30 nM. With CNC(=O)c1ccnc2c([C@H](C)CNc3cc(-c4cnc5c(c4)CN(C(C)=O)CC5)ncn3)cccc12 [Compound 815] the Ki was under 30 nM. CNC(=O)c1ccnc2c([C@H](C)CNc3cc(-c4ccc(CC(C)C)nc4)ncn3)cccc12 [Compound 816] showed a Ki of under 30 nM. CNC(=O)c1ccnc2c([C@H](C)CNc3cc(-c4cnc5c(c4)OCCN5)ncn3)cccc12 [Compound 817] showed a Ki of under 30 nM. Compound CNC(=O)c1ccnc2c([C@H](C)CNc3cc(-c4ccnc(N5CCOCC5)c4)ncn3)cccc12 [Compound 818] has a Ki of under 30 nM. In the case of CNC(=O)c1ccnc2c([C@H](C)CNc3cc(-c4ccnc(N5CCC(O)CC5)c4)ncn3)cccc12 [Compound 819], the Ki is reported as under 30 nM. CNC(=O)c1ccnc2c([C@H](C)CNc3cc(-c4cnc(CO)c(OC)c4)ncn3)cccc12 [Compound 821] was tested, and the Ki was under 30 nM. For CNC(=O)c1ccnc2c([C@H](C)CNc3cc(-c4cnc(C(C)(C)O)c(F)c4)ncn3)cccc12 [Compound 822], the Ki was under 30 nM. CNC(=O)c1ccnc2c([C@H](C)CNc3cc(-c4ccc(OC)c(F)c4)ncn3)cccc12 [Compound 823] gave a Ki of under 30 nM. Work on CNC(=O)c1ccnc2c([C@H](C)CNc3cc(-c4cc(F)c(OC)c(F)c4)ncn3)cccc12 [Compound 824] yielded a Ki of under 30 nM. Work on CNC(=O)c1ccnc2c([C@H](C)CNc3cc(-c4ccc5c(c4)CC(=O)N5C)ncn3)cccc12 [Compound 825] yielded a Ki of under 30 nM. For CNC(=O)c1ccnc2c([C@H](C)CNc3cc(N4CCn5c(C6CCN(C)CC6)cnc5C4)ncn3)cccc12 [Compound 826], the Ki was under 30 nM. Work on CNC(=O)c1ccnc2c([C@H](C)CNc3cc(-c4cnc(C)s4)ncn3)ccc(F)c12 [Compound 827] yielded a Ki of under 30 nM. CNC(=O)c1c(F)cnc2c([C@H](C)CNc3cc(-c4cnc(C)s4)ncn3)cccc12 [Compound 828] was tested, and the Ki was under 30 nM. With CCc1ncc(-c2cc(NC[C@@H](C)c3cccc4c(C(=O)NC)ccnc34)ncn2)cn1 [Compound 829] the Ki was under 30 nM. CCc1ncc(-c2cc(NC[C@@H](C)c3ccc(F)c4c(C(=O)NC)ccnc34)ncn2)cn1 [Compound 830] gave a Ki of under 30 nM. For CNC(=O)c1ccnc2c([C@H](C)CNc3cc(-c4cnc(C5CCOCC5)nc4)ncn3)cccc12 [Compound 831], the Ki was under 30 nM. Work on CNC(=O)c1ccnc2c([C@H](C)CNc3cc(-c4cnc(C5CCOCC5)nc4)ncn3)ccc(F)c12 [Compound 832] yielded a Ki of under 30 nM. Work on CNC(=O)c1c(F)cnc2c([C@H](C)CNc3cc(-c4cnc(C5CCOCC5)nc4)ncn3)cccc12 [Compound 833] yielded a Ki of under 30 nM. With CNC(=O)c1ccnc2c([C@H](C)CNc3cc(-c4ccc5c(c4)CN(C(=O)COC)CC5)ncn3)cccc12 [Compound 834] the Ki was under 30 nM. Compound CNC(=O)c1ccnc2c([C@H](C)CNc3cc(-c4ccc5c(c4)CCN(C(=O)COC)C5)ncn3)cccc12 [Compound 835] has a Ki of under 30 nM. Cc1ccc(-c2cc(NC[C@@H](C)c3cncc4c3OCCN4)ncn2)cn1 [Compound 837] showed a Ki of under 30 nM. Cc1ccc(-c2cc(NCC(C)c3cccc4c(C)ncnc34)ncn2)cn1 (stereo not shown) [Compound 838] gave a Ki of under 30 nM. With CNC(=O)c1ccnc2c([C@H](C)CNc3cc(-c4ccc(C)s4)ncn3)cccc12 [Compound 839] the Ki was under 30 nM. Compound CNC(=O)c1ccnc2c([C@H](C)CNc3cc(-c4cncc(COC)c4)ncn3)cccc12 [Compound 840] has a Ki of under 30 nM. CNC(=O)c1ccnc2c([C@H](C)CNc3cc(-c4cnnc(C)c4)ncn3)cccc12 [Compound 841] gave a Ki of under 30 nM. CNC(=O)c1ccnc2c([C@H](C)CNc3cc(-c4ccc5c(c4)CCO5)ncn3)cccc12 [Compound 842] showed a Ki of under 30 nM. With CNC(=O)c1ccnc2c([C@H](C)CNc3cc(-c4ccc5c(c4)OCCN5C)ncn3)cccc12 [Compound 843] the Ki was under 30 nM.
